Measurements reported in patent US20240174680A1, “CDK2 INHIBITORS AND METHODS OF USING THE SAME” (Cedilla Therapeutics, Inc., priority 2021, published 2024).

target: CDK2/Cyclin E1 (Homo sapiens, UniProt P24941); assay: CDK2/Cyclin E1 Caliper LabChip EZ Reader mobility shift assay; format: biochemical; design: purchased Eurofins 14-475; settings: read-out: Caliper Assay (CDK2/CCNE1): IC50
Summary of the method: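 Mobility-shift kinase assay: compound titrations preincubated 30 min with enzyme and ATP, reaction started with 5-FAM-QSPKKG-CONH2 peptide. Final 2.5 nM CDK2/Cyclin E1, 100 μM ATP, 1.5 μM peptide, HEPES pH 7.5; stopped with EDTA after 100 min. IC50 from four-parameter fit of normalized conversion ratio.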

IC50 [nM] | SMILES
> 10000 | CNC(=O)C(NC(=O)[C@@H]1CN(C(=O)c2cncs2)CC12CN(C(=O)C(C)(C)C1CC1)C2)c1cccc(C2CCOCC2)n1 (stereo partly drawn) [I-338]
1000 to 10000 | CNC(=O)[C@@H](NC(=O)[C@@H]1CN(C(=O)c2cnn(Cc3ccccc3)c2)CC12CN(C(=O)c1ccccc1)C2)[C@@H](C)OCc1ccccc1 [I-26A]
> 10000 | CNC(=O)[C@@H](NC(=O)[C@H]1CN(C(=O)c2cnn(Cc3ccccc3)c2)CC12CN(C(=O)C1C(C)(C)C1(C)C)C2)[C@@H](C)OCc1ccccc1 [I-89B]
100 to 1000 | CNC(=O)[C@@H](NC(=O)[C@@H]1CN(C(=O)c2cnn(Cc3ccccc3)c2)CC12CN(C(=O)C(C)C)C2)[C@@H](C)OCc1ccccc1 [I-54A]
> 10000 | CNC(=O)[C@@H](NC(=O)[C@H]1CN(C(=O)c2cnn(Cc3ccccc3)c2)CC12CN(C(=O)CC(C)C)C2)[C@@H](C)OCc1ccccc1 [I-69B]
100 to 1000 | CC1(C)C[C@@H]1C(=O)N1CC2(CN(C(=O)c3cnn(Cc4ccccc4)c3)C[C@H]2C(=O)N[C@H]2CCc3cc(Cl)ccc32)C1 [I-120A]
100 to 1000 | C[C@@H](OCC1CCC(F)(F)CC1)[C@H](NC(=O)[C@H]1CN(C(=O)c2cn[nH]c2)CC12CN(C(=O)[C@H]1CC1(C)C)C2)C(=O)N1CCC(F)(F)CC1 [I-228B]
100 to 1000 | CNC(=O)[C@@H](NC(=O)[C@@H]1CN(C(=O)c2cnn(Cc3ccccc3)c2)CC12CN(C(=O)C1(C3CC3)CC1)C2)[C@@H](C)OCc1ccccc1 [I-114A]
> 10000 | CNC(=O)[C@@H](NC(=O)[C@H]1CN(C(=O)c2cnc(Cl)s2)CC12CN(C(=O)[C@H]1CC1(C)C)C2)[C@@H](C)OCC1CCCCC1 [I-189B]
> 10000 | CNC(=O)[C@@H](NC(=O)[C@@H]1CN(C(=O)c2scnc2C2CC2)CC12CN(C(=O)[C@H]1CC1(C)C)C2)[C@@H](C)OCC1CCCCC1 [I-185A]
100 to 1000 | CNC(=O)[C@H](CCCC1CCCCC1)NC(=O)[C@@H]1CN(C(=O)c2cnn(Cc3ccccc3)c2)CC12CN(C(=O)[C@H]1CC1(C)C)C2 [I-155A]
> 10000 | CNC(=O)[C@@H](NC(=O)[C@@H]1CN(C(=O)c2cnn(Cc3ccccc3)c2)CC12CN(C(=O)CC1(COC)CC1)C2)[C@@H](C)OCc1ccccc1 [I-82A]
10 to 100 | C[C@@H](OCC1CCC(F)(F)CC1)[C@H](NC(=O)[C@@H]1CN(C(=O)c2cn[nH]c2)CC12CN(C(=O)C1(C(F)(F)F)CC1)C2)C(=O)N1CCOCC1 [I-302]
> 10000 | COCC1(NC(=O)[C@H]2CN(C(=O)c3cnn(Cc4ccccc4)c3)CC23CN(C(=O)[C@H]2CC2(C)C)C3)CC1 [I-250]
≤ 10 | Cc1nc(C)c(C(=O)N2C[C@@H](C(=O)N[C@H](C(=O)N3CCC4(CC3)COC4)[C@@H](C)OCC34CCC(CC3)OC4)C3(C2)CN(C(=O)[C@H]2CC2(C)C)C3)s1 [I-343]
≤ 10 | Cc1nc(C)c(C(=O)N2C[C@@H](C(=O)N[C@H](C(=O)N3CCC(C(F)(F)F)CC3)[C@@H](C)OCC34CCC(CC3)OC4)C3(C2)CN(C(=O)[C@H]2CC2(C)C)C3)s1 [I-456]
100 to 1000 | CNC(=O)[C@@H](NC(=O)[C@@H]1CN(C(=O)c2cnn(Cc3ccccc3)c2)CC12CN(C(=O)[C@H]1CC1(C)C)C2)[C@@H](C)OCc1cccnc1 [I-247]
> 10000 | CNC(=O)[C@@H](NC(=O)[C@H]1CN(C(=O)c2cnn(Cc3ccccc3)c2)CC12CN(C(=O)C(C)(C)C#N)C2)[C@@H](C)OCc1ccccc1 [I-76B]
100 to 1000 | C[C@@H](OCc1ccccc1)[C@H](NC(=O)C1CN(C(=O)c2cnn(Cc3ccccc3)c2)CC12CN(C(=O)[C@H]1CC1(C)C)C2)C(=O)O (stereo partly drawn) [I-9, (2S,3R)-2-(6-(1-benzyl-1H-pyrazole-4-carbonyl)-2-((S)-2,2-dimethylcyclopropanecarbonyl)-2,6-diazaspiro[3.4]octane-8-carboxamido)-3-(benzyloxy)butanoic acid]
> 10000 | CNC(=O)[C@@H](NC(=O)[C@@H]1CN(C(=O)Cc2cnn(C)c2)CC12CN(C(=O)[C@H]1CC1(C)C)C2)[C@@H](C)OCc1ccccc1 [I-384]
10 to 100 | C[C@@H](OCC1CCOCC1)[C@H](NC(=O)[C@@H]1CN(C(=O)c2cncs2)CC12CN(C(=O)[C@H]1CC1(C)C)C2)C(=O)N1CCC(F)(F)CC1 [I-288]
100 to 1000 | C[C@@H](OCC12CCC(CC1)OC2)[C@H](NC(=O)[C@@H]1CN(C(=O)c2cncs2)CC12CN(C(=O)C(C)(C)C1CC1)C2)C(C)(C)O [I-334]
> 10000 | CCCC(=O)N1CC2(C1)CN(C(=O)c1cnn(Cc3ccccc3)c1)C[C@@H]2C(=O)N[C@H](C(=O)NC)[C@@H](C)OCc1ccccc1 [I-60B]
≤ 10 | C[C@@H](OCC1CCC(F)(F)CC1)[C@@H](COC1CCC(F)(F)CC1)NC(=O)[C@@H]1CN(C(=O)c2cncs2)CC12CN(C(=O)[C@H]1CC1(C)C)C2 [I-315]
> 10000 | CNC(=O)[C@@H](CO)NC(=O)C1CN(C(=O)c2cnn(Cc3ccccc3)c2)CC12CN(C(=O)[C@H]1CC1(C)C)C2 (stereo partly drawn) [I-261]
> 10000 | CC1(C)C[C@@H]1C(=O)N1CC2(CN(C(=O)c3cnn(Cc4ccccc4)c3)C[C@@H]2C(=O)NCc2nnc[nH]2)C1 [I-191B]

IC50 [nM] | SMILES
> 10000 | Cc1ccc(CNC(=O)[C@@H]2CN(C(=O)c3cnn(Cc4ccccc4)c3)CC23CN(C(=O)C(C)(C)C2CC2)C3)nn1 [I-387, (S)-6-(1-benzyl-1H-pyrazole-4-carbonyl)-2-(2-cyclopropyl-2-methylpropanoyl)-N-((6-methylpyridazin-3-yl)methyl)-2,6-diazaspiro[3.4]octane-8-carboxamide]
100 to 1000 | C[C@@H](OCC1CCOCC1)[C@H](NC(=O)[C@@H]1CN(C(=O)c2cncs2)CC12CN(C(=O)C(C)(C)C1CC1)C2)C(C)(C)O [I-341]
≤ 10 | C[C@@H](OCc1ccccc1)[C@H](NC(=O)[C@@H]1CN(C(=O)c2cnn(Cc3ccccc3)c2)CC12CN(C(=O)[C@H]1CC1(C)C)C2)C(=O)N(C)C [I-409]
1000 to 10000 | CNC(=O)[C@@H](NC(=O)[C@@H]1CN(C(=O)c2cnn(Cc3ccccc3)c2)CC12CN(C(=O)[C@H]1CC1(C)C)C2)[C@@H](C)OCc1ccncc1 [I-244]
1000 to 10000 | CC1(C)C[C@@H]1C(=O)N1CC2(CN(C(=O)c3cnn(Cc4ccccc4)c3)C[C@H]2C(=O)NC[C@H]2CC[C@H](C)CC2)C1 [I-382]
1000 to 10000 | COC[C@H]1CCCN(C(=O)CNC(=O)[C@@H]2CN(C(=O)c3cncs3)CC23CN(C(=O)[C@H]2CC2(C)C)C3)C1 [I-323]
≤ 10 | C[C@@H](OCC1CCCCC1)[C@H](NC(=O)C1CN(C(=O)c2cnn(Cc3ccccc3)c2)CC12CN(C(=O)[C@H]1CC1(C)C)C2)C(=O)N1CCCC(CO)C1 (stereo partly drawn) [I-105]
> 10000 | CNC(=O)[C@@H](NC(=O)[C@H]1CN(C(=O)c2scnc2C2CC2)CC12CN(C(=O)[C@H]1CC1(C)C)C2)[C@@H](C)OCC1CCCCC1 [I-185B]
100 to 1000 | C[C@@H]1C[C@H](C)CN(C(=O)[C@@H](NC(=O)C2CN(C(=O)c3cn[nH]c3)CC23CN(C(=O)[C@H]2CC2(C)C)C3)[C@@H](C)OCc2ccccc2)C1 (stereo partly drawn) [I-124]
1000 to 10000 | CNC(=O)[C@@H](NC(=O)[C@H]1CN(C(=O)c2cnn(Cc3ccccc3)c2)CC12CN(C(=O)[C@H]1CC1(C)C)C2)[C@@H](C)OCC(C)C [I-137B]
≤ 10 | C[C@@H](OCC1CCC(F)(F)CC1)[C@H](NC(=O)[C@@H]1CN(C(=O)c2cncs2)CC12CN(C(=O)[C@H]1CC1(C)C)C2)C(=O)N1CCC2(CC1)CC2 [I-380]
1000 to 10000 | CC1(C)C[C@@H]1C(=O)N1CC2(CN(C(=O)c3cnn(Cc4ccccc4)c3)C[C@H]2C(=O)Nc2cccc(-c3ccccc3)c2)C1 [I-63A]
> 10000 | CNC(=O)[C@@H](NC(=O)[C@H]1CN(C(=O)c2cnn(Cc3ccccc3)c2)CC12CN(C(=O)[C@H]1CC1(C)C)C2)C(C)(C)SCc1ccccc1 [I-171B]
≤ 10 | COC[C@H]1CCCN(C(=O)[C@@H](NC(=O)[C@@H]2CN(C(=O)c3cncs3)CC23CN(C(=O)[C@H]2CC2(C)C)C3)[C@@H](C)OCc2ccc(F)cc2)C1 [I-318]
1000 to 10000 | CC(C)(O)C(NC(=O)[C@@H]1CN(C(=O)c2cncs2)CC12CN(C(=O)[C@H]1CC1(C)C)C2)c1cccc(C2CCOCC2)n1 (stereo partly drawn) [I-423]
> 10000 | COC(=O)[C@H](CO)NC(=O)[C@H]1CN(C(=O)c2cnn(Cc3ccccc3)c2)CC12CN(C(=O)[C@H]1CC1(C)C)C2 [I-209B]
≤ 10 | C[C@@H](OCC1CCCCC1)[C@@H](COCC1CCCCC1)NC(=O)[C@@H]1CN(C(=O)c2cncs2)CC12CN(C(=O)[C@H]1CC1(C)C)C2 [I-282]
≤ 10 | CNC(=O)[C@@H](NC(=O)[C@@H]1CN(C(=O)c2cnn(Cc3ccccc3)c2)CC12CN(C(=O)[C@H]1CC1(C)C)C2)[C@@H](C)OCC1CCCCCC1 [I-166A]
> 10000 | COC(=O)[C@@H](CO)NC(=O)[C@H]1CN(C(=O)c2cnn(Cc3ccccc3)c2)CC12CN(C(=O)[C@H]1CC1(C)C)C2 [I-187B]
> 10000 | CNC(=O)[C@@H](NC(=O)[C@H]1CN(C(=O)c2cnc(C)s2)CC12CN(C(=O)[C@H]1CC1(C)C)C2)[C@@H](C)OCC1CCCCC1 [I-156B]
100 to 1000 | C[C@@H](OCc1ccccc1)[C@H](NC(=O)C1CN(C(=O)c2cnn(Cc3ccccc3)c2)CC12CN(C(=O)[C@H]1CC1(C)C)C2)C(=O)NCCN (stereo partly drawn) [I-31]
10 to 100 | C[C@@H](OCC12CCC(CC1)OC2)[C@H](NC(=O)[C@@H]1CN(C(=O)c2cncs2)CC12CN(C(=O)[C@H]1CC1(C)C)C2)C(=O)N1CCC(OC(F)(F)F)CC1 [I-457]
≤ 10 | CNC(=O)C(NC(=O)[C@@H]1CN(C(=O)c2cnn(Cc3ccccc3)c2)CC12CN(C(=O)[C@H]1CC1(C)C)C2)c1cccc(C2CCCCC2)n1 (stereo partly drawn) [I-391]
1000 to 10000 | C[C@@H](OCc1ccccc1)[C@H](NC(=O)[C@H]1CN(C(=O)c2cnn(Cc3ccccc3)c2)CC12CN(C(=O)[C@H]1CC1(C)C)C2)C(N)=O [I-176B]
> 10000 | CO[C@H]1COCC[C@@H]1NC(=O)[C@@H]1CN(C(=O)c2cnn(Cc3ccccc3)c2)CC12CN(C(=O)[C@H]1CC1(C)C)C2 [I-131A]
